Test results as given in US20250025427A1, “MIXED AMIDE ESTER CONTAINING LIPIDS FOR USE IN LIPID NANOPARTICLES” (Acuitas Therapeutics, Inc., priority 2023, published 2025).

system: luciferase protein (FLuc mRNA) expression in liver; assay: Luciferase mRNA in vivo evaluation using lipid nanoparticle compositions; set-up: species or system mice; settings: LNP with the cationic lipid, 0.3 mg mRNA/kg, tail vein injection, ng luciferase/g liver 4 hours after administration
Experimental: (§1) A lipid of Formula (I), DSPC, cholesterol and PEG-lipid of Formula (II) are solubilized in ethanol at a molar ratio of 50:10:38.5:1.5 or 47.5:10:40.7:1.8. Lipid nanoparticles (LNP) are prepared at a total lipid to mRNA weight ratio of approximately 10:1 to 40:1. Briefly, the mRNA is diluted to 0.2 mg/mL in 10 to 50 mM citrate buffer, pH 4 to 6 or 10 to 25 mM acetate buffer, pH 4 to 6. Syringe pumps are used to mix the ethanolic lipid solution with the mRNA aqueous solution at a ratio of about 1:5 to 1:3 (vol/vol) with total flow rates above 15 mL/min. The ethanol is then removed, and the external buffer replaced with PBS by dialysis. Finally, the lipid nanoparticles are filtered through a 0.2 µm pore sterile filter.
Studies are performed in 6-8-week-old female C57BL/6 mice (Charles River) or 8-10-week-old CD-1 mice (Charles River or Inotiv) according to guidelines established by an institutional animal care committee (ACC) and the Canadian Council on Animal Care (CCAC). Varying doses of mRNA-lipid nanoparticle are systemically administered by tail vein injection and animals euthanized at a specific time point (e.g., 4 hours) post-administration. Liver and spleen are collected in pre-weighed tubes, weights determined, immediately snap frozen in liquid nitrogen, and stored at −80° C. until processing for analysis. […]

Compound | Liver Luc (ng/g) @ 0.3 mg/kg
CCCCCCCCCCN(CCCCCCCCCC)C(=O)CCCCCCCN(C)CCCCCCCC(=O)NCCCCCC(=O)OCC(CCCCCC)CCCCCCCC (stereo not drawn) [Compound I-3, 2-Hexyldecyl 6-(8-((8-(Didecylamino)-8-Oxooctyl)(Methyl)Amino)Octanamido)Hexanoate] | 8191 ± 2369 ng/g

same assay, conditions: LNP with the cationic lipid, 1.0 mg mRNA/kg, tail vein injection, ng luciferase/g liver 4 hours after administration

Compound | Liver Luc (ng/g) @ 1.0 mg/kg
CCCCCCCCCCN(CCCCCCCCCC)C(=O)CCCCCCCN(C)CCCCCCCC(=O)NCCCCCC(=O)OCC(CCCCCC)CCCCCCCC (stereo not drawn) [Compound I-3, 2-Hexyldecyl 6-(8-((8-(Didecylamino)-8-Oxooctyl)(Methyl)Amino)Octanamido)Hexanoate] | 25381 ± 4022 ng/g

system: human IgG in mouse serum; assay: Immunoglobulin G (IgG) mRNA in vivo evaluation using lipid nanoparticle compositions; set-up: species or system mice; settings: LNP with the cationic lipid, 0.3 mg mRNA/kg, tail vein injection, μg IgG/mL serum 24 hours after administration
Experimental: as §1
Studies are performed in 6-8-week-old CD-1/ICR mice (Charles River or Inotiv) according to guidelines established by an institutional animal care committee (ACC) and the Canadian Council on Animal Care (CCAC). Varying doses of mRNA-lipid nanoparticle are systemically administered by tail vein injection and animals euthanized at a specific time point (e.g., 24 hours) post-administration. The whole blood is collected, and the serum subsequentially separated by centrifuging the tubes of the whole blood at 2000×g for 10 minutes at 4° C. and stored at −80° C. until use for analysis.
For immunoglobulin G (IgG) ELISA (Life Diagnostics Human IgG ELISA kit), the serum samples are diluted at 100 to 20,000 folds with 1× diluent solution. 100 μL of diluted serum is dispensed into anti-human IgG coated 96-well plate in duplicate alongside human IgG standards and incubated in a plate shaker at 150 rpm at 25° C. for 45 minutes. The wells are washed 5 times with 1× wash solution using a plate washer (400 μL/well). 100 μL of HRP conjugate is added into each well and incubated in a plate shaker at the same condition above. The wells are washed 5 times again with 1× wash solution using a plate washer (400 μL/well). 100 μL of TMB reagent is added into each well and incubated in a plate shaker at the same condition above. The reaction is stopped by adding 100 μL of Stop solution to each well. The absorbance is read at 450 nm (A450) with a microplate reader. The amount of human IgG in mouse serum is determined by plotting A450 values for the assay standard against human IgG concentration.
Representative compounds of the disclosure shown in Table 2 were formulated using the following molar ratio: 50% cationic lipid/10% distearoylphosphatidylcholine (DSPC)/38.5% Cholesterol/1.5% PEG lipid 2-[2-(ω-methoxy(polyethyleneglycohooo)ethoxy]-N,N-ditetradecylacetamide) or 47.5% cationic lipid/10% DSPC/40.7% Cholesterol/1.8% PEG lipid. Relative activity was determined by measuring the amount of human IgG […]. The activity was compared at a dose of 1.0 or 0.3 mg mRNA/kg and expressed as ng luciferase/g liver measured 4 hours after administration, as described in Example 1 or as μg IgG/mL serum measured 24 hours after administration, as described in Example 2. Compound numbers in Table 2 refer to the compound numbers of Table 1.

Compound | Serum IgG (μg/mL) @ 0.3 mg/kg
CCCCCCCCC(CCCCCC)COC(=O)CCCCCN(CCCCCC)C(=O)CCCCCN(CCCCCC(=O)N(CCCCCC)CCCCCC(=O)OCC(CCCCCC)CCCCCCCC)CCCOC (stereo not drawn) [Compound I-37, Bis(2-Hexyldecyl) 6,6′-((6,6′-((3-Methoxypropyl)Azanediyl)Bis(Hexanoyl))Bis(Hexylazanediyl))Dihexanoate] | 63.0 ± 22.9 µg/mL
CCCCCCCCCCCCCCCCN(CCCN(C)CCCCCCCC(=O)N(CCCCCCCCCC)CCCCCC(=O)OCC(CCCC)CCCCCC)C(=O)CCCCC(=O)OCC(CCCCCC)CCCCCCCC (stereo not drawn) [Compound I-38, 2-Hexyldecyl 6-((3-((8-((6-((2-Butyloctyl)Oxy)-6-Oxohexyl)(Decyl)Amino)-8-Oxooctyl)(Methyl)Amino)Propyl)(Hexadecyl)Amino)-6-Oxohexanoate] | 21.9 ± 8.8 µg/mL
CCCCCCCCCCN(CCCCCC(=O)OCC(CCCCCC)CCCCCCCC)C(=O)CCCCCCCN(C)CCCCCCCC(=O)N(CCCCCCCCCC)CCCCCC(=O)OCC(CCCCCC)CCCCCCCC (stereo not drawn) [Compound I-40, Bis(2-Hexyldecyl) 6,6′-((8,8′-(Methylazanediyl)Bis(Octanoyl))Bis(Decylazanediyl))Dihexanoate] | 13.8 ± 6.0 µg/mL
CCCCCCCCC(CCCCCC)COC(=O)CCCCCN(CCCCCCCC)C(=O)CCCCCCCN(C)CCCCCCCC(=O)N(CCCCCCCC)CCCCCC(=O)OCC(CCCCCC)CCCCCCCC (stereo not drawn) [Compound I-41, Bis(2-Hexyldecyl) 6,6′-((8,8′-(Methylazanediyl)Bis(Octanoyl))Bis(Octylazanediyl))Dihexanoate] | 19.2 ± 6.8 µg/mL
CCCCCCCCC(CCCCCC)COC(=O)CCCCCN(CCCCCCCCN(C)CCCCCCCCN(CCCCCC(=O)OCC(CCCCCC)CCCCCCCC)C(=O)CCCCC)C(=O)CCCCC (stereo not drawn) [Compound I-43, Bis(2-Hexyldecyl) 6,6′-(((Methylazanediyl)Bis(Octane-8,1-Diyl))Bis(Hexanoylazanediyl))Dihexanoate] | 49.9 ± 14.8 µg/mL
CCCCCCCCC(CCCCCC)COC(=O)CCCCC(=O)N(CCCCCC)CCCCCCCCN(C)CCCCCCCCN(CCCCCC)C(=O)CCCCC(=O)OCC(CCCCCC)CCCCCCCC (stereo not drawn) [Compound I-45, Bis(2-Hexyldecyl) 6,6′-(((Methylazanediyl)Bis(Octane-8,1-Diyl))Bis(Hexylazanediyl))Bis(6-Oxohexanoate)] | 18.3 ± 4.6 µg/mL
CCCCCCCCC(CCCCCC)COC(=O)CCCCCN(CCCCCC)C(=O)CCCCCN(C)CCCCCCCC(=O)N(CCCCCC)CCCCCCOC(=O)C(CCCCCC)CCCCCCCC (stereo not drawn) [Compound I-46, 7,23,32-Trihexyl-16-Methyl-8,22,29-Trioxo-30-Oxa-7,16,23-Triazatetracontyl 2-Hexyldecanoate] | 34.4 ± 11.3 µg/mL
CCCCCCCCC(CCCCCC)COC(=O)CCCCCN(CCCCCC)C(=O)CCN(C)CCC(=O)N(CCCCCC)CCCCCC(=O)OCC(CCCCCC)CCCCCCCC (stereo not drawn) [Compound I-48, Bis(2-Hexyldecyl) 6,6′-((3,3′-(Methylazanediyl)Bis(Propanoyl))Bis(Hexylazanediyl))Dihexanoate] | 27.5 ± 12.7 µg/mL
CCCCCCCCC(CCCCCC)COC(=O)CCCCCCCCCN(CCCCCC)C(=O)CCCN(C)CCCC(=O)N(CCCCCC)CCCCCCCCCC(=O)OCC(CCCCCC)CCCCCCCC (stereo not drawn) [Compound I-50, Bis(2-Hexyldecyl) 10,10′-((4,4′-(Methylazanediyl)Bis(Butanoyl))Bis(Hexylazanediyl))Bis(Decanoate)] | 11.6 ± 8.2 µg/mL
CCCCCCCCC(CCCCCC)COC(=O)CCCCCN(CCCCCC)C(=O)CCCN(C)CCCC(=O)N(CCCCCC)CCCCCC(=O)OCC(CCCCCC)CCCCCCCC (stereo not drawn) [Compound I-52, Bis(2-Hexyldecyl) 6,6′-((4,4′-(Methylazanediyl)Bis(Butanoyl))Bis(Hexylazanediyl))Dihexanoate] | 13.0 ± 4.1 µg/mL
